Source: PubChem BioAssay AID1963830 (Molecular Pharmacology Branch, DTP, NCI, 2024)

System: 922993-354-T-J3-PDC complex spheroid viability
Assay: Anticancer human tumor 922993-354-T-J3-PDC patient-derived endometrial carcinoma cell line growth inhibition [POLQ]
Settings: for IC50: curve of first compound; for viability, T/C: stronger effect = lower value
Procedure, shortened: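 PDC + HUVEC + MSC complex spheroids; POLQ inhibitors ± partner drugs; top conc. at/near clinical Cmax, else 10 microM (SN-38 1 microM), half-log dilutions; 37 degrees C, 5% CO2.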
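Also: spheroids exposed to the agents for one week.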
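For viability, T/C in this document: 100% = DMSO vehicle control wells.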

Question: What does the source list for `CC(=O)O[C@H]1C(=O)[C@@]2(C)[C@H]([C@H](OC(=O)c3ccccc3)[C@]3(O)C[C@H](OC(=O)[C@H](O)[C@@H](NC(=O)c4ccccc4)c4ccccc4)C(C)=C1C3(C)C)[C@]1(OC(C)=O)CO[C@@H]1C[C@@H]2O` + Nc1ccc(C#CCN(C(=O)Cc2ncc(C(F)(F)F)cc2C(F)(F)F)c2ccc(F)cc2)nn1?
Answer: IC50 (second compound 0.0316 µM): > 3000 nM; IC50 (second compound 0.1 µM): > 3000 nM; IC50 (second compound 0.316 µM): > 3000 nM; IC50 (second compound 1 µM): > 3000 nM; IC50 (second compound 3.16 µM): > 3000 nM; IC50 (second compound 10 µM): > 3000 nM; viability, T/C (second compound 0.0316 µM, first compound 0.00949 µM): 105%; viability, T/C (second compound 0.0316 µM, first compound 0.03 µM): 107%; viability, T/C (second compound 0.0316 µM, first compound 0.0949 µM): 102%; viability, T/C (second compound 0.0316 µM, first compound 0.3 µM): 105%; viability, T/C (second compound 0.0316 µM, first compound 0.949 µM): 99%; viability, T/C (second compound 0.0316 µM, first compound 3 µM): 73.4%; viability, T/C (second compound 0.1 µM, first compound 0.00949 µM): 105%; viability, T/C (second compound 0.1 µM, first compound 0.03 µM): 106%; viability, T/C (second compound 0.1 µM, first compound 0.0949 µM): 106%; viability, T/C (second compound 0.1 µM, first compound 0.3 µM): 106%; viability, T/C (second compound 0.1 µM, first compound 0.949 µM): 99.9%; viability, T/C (second compound 0.1 µM, first compound 3 µM): 72.4%; viability, T/C (second compound 0.316 µM, first compound 0.00949 µM): 107%; viability, T/C (second compound 0.316 µM, first compound 0.03 µM): 107%; viability, T/C (second compound 0.316 µM, first compound 0.0949 µM): 104%; viability, T/C (second compound 0.316 µM, first compound 0.3 µM): 103%; viability, T/C (second compound 0.316 µM, first compound 0.949 µM): 96.6%; viability, T/C (second compound 0.316 µM, first compound 3 µM): 78.1%; viability, T/C (second compound 1 µM, first compound 0.00949 µM): 107%; viability, T/C (second compound 1 µM, first compound 0.03 µM): 100%; viability, T/C (second compound 1 µM, first compound 0.0949 µM): 104%; viability, T/C (second compound 1 µM, first compound 0.3 µM): 107%; viability, T/C (second compound 1 µM, first compound 0.949 µM): 91.7%; viability, T/C (second compound 1 µM, first compound 3 µM): 71.4%; viability, T/C (second compound 3.16 µM, first compound 0.00949 µM): 101%; viability, T/C (second compound 3.16 µM, first compound 0.03 µM): 105%; viability, T/C (second compound 3.16 µM, first compound 0.0949 µM): 98.3%; viability, T/C (second compound 3.16 µM, first compound 0.3 µM): 101%; viability, T/C (second compound 3.16 µM, first compound 0.949 µM): 83.7%; viability, T/C (second compound 3.16 µM, first compound 3 µM): 69.8%; viability, T/C (second compound 10 µM, first compound 0.00949 µM): 90.6%; viability, T/C (second compound 10 µM, first compound 0.03 µM): 84.3%; viability, T/C (second compound 10 µM, first compound 0.0949 µM): 69.5%; viability, T/C (second compound 10 µM, first compound 0.3 µM): 69.8%; viability, T/C (second compound 10 µM, first compound 0.949 µM): 60.8%; viability, T/C (second compound 10 µM, first compound 3 µM): 54.8%

Question: Which IC50 (second compound 0.0316 µM) does the source give for `CC[C@@]1(O)C(=O)OCc2c1cc1n(c2=O)Cc2cc3c(CN(C)C)c(O)ccc3nc2-1` + Nc1ccc(C#CCN(C(=O)Cc2ncc(C(F)(F)F)cc2C(F)(F)F)c2ccc(F)cc2)nn1 here?
Answer: The IC50 was greater than 100 nM.

Question: What about the IC50 (second compound 0.1 µM) of the same compound?
Answer: The IC50 was greater than 100 nM.

Question: And the IC50 (second compound 0.316 µM)?
Answer: The IC50 was greater than 100 nM.

Question: And the IC50 (second compound 1 µM)?
Answer: Its IC50 is greater than 100 nM.

Question: And the IC50 (second compound 3.16 µM)?
Answer: Its IC50 is greater than 100 nM.

Question: And the IC50 (second compound 10 µM)?
Answer: Its IC50 is 54.7 nM.

Question: And the viability, T/C (second compound 0.0316 µM, first compound 0.000316 µM)?
Answer: Its viability, T/C is 103%.

Question: And the viability, T/C (second compound 0.0316 µM, first compound 0.001 µM)?
Answer: The viability, T/C was 105%.

Question: And the viability, T/C (second compound 0.0316 µM, first compound 0.00316 µM)?
Answer: The viability, T/C was 99.4%.

Question: And the viability, T/C (second compound 0.0316 µM, first compound 0.01 µM)?
Answer: Its viability, T/C is 101%.

Question: What about the viability, T/C (second compound 0.0316 µM, first compound 0.0316 µM) of the same compound?
Answer: The viability, T/C was 100%.

Question: What about the viability, T/C (second compound 0.0316 µM, first compound 0.1 µM) of the same compound?
Answer: The viability, T/C was 89.5%.

Question: And the viability, T/C (second compound 0.1 µM, first compound 0.000316 µM)?
Answer: Its viability, T/C is 102%.

Question: And the viability, T/C (second compound 0.1 µM, first compound 0.001 µM)?
Answer: Its viability, T/C is 105%.

Question: What about the viability, T/C (second compound 0.1 µM, first compound 0.00316 µM) of the same compound?
Answer: Its viability, T/C is 100%.

Question: And the viability, T/C (second compound 0.1 µM, first compound 0.01 µM)?
Answer: The viability, T/C was 102%.

Question: What about the viability, T/C (second compound 0.1 µM, first compound 0.0316 µM) of the same compound?
Answer: Its viability, T/C is 102%.

Question: What about the viability, T/C (second compound 0.1 µM, first compound 0.1 µM) of the same compound?
Answer: The viability, T/C was 87.2%.

Question: What about the viability, T/C (second compound 0.316 µM, first compound 0.000316 µM) of the same compound?
Answer: The viability, T/C was 105%.

Question: What about the viability, T/C (second compound 0.316 µM, first compound 0.001 µM) of the same compound?
Answer: The viability, T/C was 98.1%.

Question: What about the viability, T/C (second compound 0.316 µM, first compound 0.00316 µM) of the same compound?
Answer: Its viability, T/C is 103%.

Question: And the viability, T/C (second compound 0.316 µM, first compound 0.01 µM)?
Answer: Its viability, T/C is 98.9%.

Question: And the viability, T/C (second compound 0.316 µM, first compound 0.0316 µM)?
Answer: Its viability, T/C is 103%.

Question: What about the viability, T/C (second compound 0.316 µM, first compound 0.1 µM) of the same compound?
Answer: The viability, T/C was 81.1%.

Question: What about the viability, T/C (second compound 1 µM, first compound 0.000316 µM) of the same compound?
Answer: Its viability, T/C is 105%.

Question: And the viability, T/C (second compound 1 µM, first compound 0.001 µM)?
Answer: Its viability, T/C is 103%.

Question: What about the viability, T/C (second compound 1 µM, first compound 0.00316 µM) of the same compound?
Answer: Its viability, T/C is 100%.

Question: What about the viability, T/C (second compound 1 µM, first compound 0.01 µM) of the same compound?
Answer: Its viability, T/C is 99.2%.

Question: And the viability, T/C (second compound 1 µM, first compound 0.0316 µM)?
Answer: The viability, T/C was 96%.

Question: And the viability, T/C (second compound 1 µM, first compound 0.1 µM)?
Answer: Its viability, T/C is 82.2%.

Question: What about the viability, T/C (second compound 3.16 µM, first compound 0.000316 µM) of the same compound?
Answer: The viability, T/C was 101%.

Question: And the viability, T/C (second compound 3.16 µM, first compound 0.001 µM)?
Answer: The viability, T/C was 102%.

Question: What about the viability, T/C (second compound 3.16 µM, first compound 0.00316 µM) of the same compound?
Answer: Its viability, T/C is 103%.

Question: What about the viability, T/C (second compound 3.16 µM, first compound 0.01 µM) of the same compound?
Answer: The viability, T/C was 94.5%.

Question: What about the viability, T/C (second compound 3.16 µM, first compound 0.0316 µM) of the same compound?
Answer: Its viability, T/C is 92.9%.

Question: What about the viability, T/C (second compound 3.16 µM, first compound 0.1 µM) of the same compound?
Answer: Its viability, T/C is 72.9%.

Question: What about the viability, T/C (second compound 10 µM, first compound 0.000316 µM) of the same compound?
Answer: The viability, T/C was 100%.

Question: And the viability, T/C (second compound 10 µM, first compound 0.001 µM)?
Answer: Its viability, T/C is 91.3%.

Question: What about the viability, T/C (second compound 10 µM, first compound 0.00316 µM) of the same compound?
Answer: Its viability, T/C is 97%.

Question: What about the viability, T/C (second compound 10 µM, first compound 0.01 µM) of the same compound?
Answer: Its viability, T/C is 92.9%.

Question: And the viability, T/C (second compound 10 µM, first compound 0.0316 µM)?
Answer: The viability, T/C was 71.8%.

Question: And the viability, T/C (second compound 10 µM, first compound 0.1 µM)?
Answer: The viability, T/C was 25.9%.
